Measurements as given in patent publication US20050282743A1, “Molecular interactions in cells” (Arbor Vita Corporation, priority 2001, published 2005).
Ends that are not written are not given here. Peptide text beside a SMILES is read from it. * marks the point of attachment. Biotin = O=C1N[C@H]2[C@H](CS[C@H]2CCCCC(=O)*)N1

Assays:
Test in all cases: G' assay (10 uM PL peptide), results of TABLE 7 and TABLE 12
Format in all cases: binding
[1] = target: T1, PDZ protein (GST-PDZ fusion) (Rattus norvegicus, UniProt Q9JLU4); details: PDZ rat SHANK 3, PDZ Domain 1
T1 construct: made in house; host or cells: E. coli (DH5alpha, BL21 or JM109)
T1 sequence (Q9JLU4 whole entry, the tested form may be a part): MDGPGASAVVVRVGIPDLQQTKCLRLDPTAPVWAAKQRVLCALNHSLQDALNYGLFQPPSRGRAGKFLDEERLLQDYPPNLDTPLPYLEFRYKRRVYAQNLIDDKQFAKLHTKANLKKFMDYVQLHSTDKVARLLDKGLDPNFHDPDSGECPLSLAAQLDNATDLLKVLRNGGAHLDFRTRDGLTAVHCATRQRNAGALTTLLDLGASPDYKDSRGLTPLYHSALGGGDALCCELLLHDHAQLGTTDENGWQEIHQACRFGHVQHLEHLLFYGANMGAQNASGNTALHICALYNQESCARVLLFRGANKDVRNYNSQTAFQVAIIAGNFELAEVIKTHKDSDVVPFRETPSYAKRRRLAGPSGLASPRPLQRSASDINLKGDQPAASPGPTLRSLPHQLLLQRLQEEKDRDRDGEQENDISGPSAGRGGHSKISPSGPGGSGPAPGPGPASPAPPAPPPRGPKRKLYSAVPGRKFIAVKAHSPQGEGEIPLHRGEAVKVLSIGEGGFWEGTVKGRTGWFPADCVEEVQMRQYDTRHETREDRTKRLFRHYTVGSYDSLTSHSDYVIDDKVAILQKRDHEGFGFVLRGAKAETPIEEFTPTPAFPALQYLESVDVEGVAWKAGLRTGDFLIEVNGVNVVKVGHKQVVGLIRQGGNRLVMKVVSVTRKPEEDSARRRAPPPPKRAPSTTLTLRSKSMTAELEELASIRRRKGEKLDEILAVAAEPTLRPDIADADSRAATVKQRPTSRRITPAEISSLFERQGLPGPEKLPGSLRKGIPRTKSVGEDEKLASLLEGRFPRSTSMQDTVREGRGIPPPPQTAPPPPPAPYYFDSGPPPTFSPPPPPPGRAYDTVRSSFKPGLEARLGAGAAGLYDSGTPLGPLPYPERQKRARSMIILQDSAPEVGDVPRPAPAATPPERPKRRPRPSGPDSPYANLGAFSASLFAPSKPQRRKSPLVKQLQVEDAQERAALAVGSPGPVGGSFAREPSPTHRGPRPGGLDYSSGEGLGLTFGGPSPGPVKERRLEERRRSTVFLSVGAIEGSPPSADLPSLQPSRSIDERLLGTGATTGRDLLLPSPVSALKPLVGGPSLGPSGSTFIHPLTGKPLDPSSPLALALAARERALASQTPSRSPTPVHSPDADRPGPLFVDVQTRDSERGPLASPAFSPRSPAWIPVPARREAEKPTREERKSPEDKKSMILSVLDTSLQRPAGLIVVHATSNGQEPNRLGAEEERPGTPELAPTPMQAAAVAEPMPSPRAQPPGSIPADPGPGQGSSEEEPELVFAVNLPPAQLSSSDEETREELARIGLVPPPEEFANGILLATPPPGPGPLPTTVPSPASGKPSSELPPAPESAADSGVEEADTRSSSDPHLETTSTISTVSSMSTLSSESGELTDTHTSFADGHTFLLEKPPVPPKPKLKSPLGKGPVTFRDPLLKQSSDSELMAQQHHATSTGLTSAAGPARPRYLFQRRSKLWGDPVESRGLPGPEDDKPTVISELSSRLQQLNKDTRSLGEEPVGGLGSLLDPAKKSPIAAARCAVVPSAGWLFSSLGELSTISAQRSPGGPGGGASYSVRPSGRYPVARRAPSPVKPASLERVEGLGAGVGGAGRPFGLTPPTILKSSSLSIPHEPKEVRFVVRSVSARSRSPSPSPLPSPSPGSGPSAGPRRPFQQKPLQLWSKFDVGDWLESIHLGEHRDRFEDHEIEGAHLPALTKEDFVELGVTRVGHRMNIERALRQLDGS
Procedure, shortened: (§1)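 Biotin-PL peptide (N-term label), 10 uM vs GST-PDZ; protein 5 ug/ml by default. A450 nm binned: 1 = 0-1, 2 = 1-2, 3 = 2-3, 4 = 3-4, 5 = >4 on >2 repeats, 0 = no binding.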

[2] = target: T2, PDZ protein (GST-PDZ fusion) (Homo sapiens, UniProt Q9NRD5); details: PDZ PICK1, PDZ Domain 1
T2 construct: made in house; host or cells: E. coli (DH5alpha, BL21 or JM109)
T2 sequence (Q9NRD5 whole entry, the tested form may be a part): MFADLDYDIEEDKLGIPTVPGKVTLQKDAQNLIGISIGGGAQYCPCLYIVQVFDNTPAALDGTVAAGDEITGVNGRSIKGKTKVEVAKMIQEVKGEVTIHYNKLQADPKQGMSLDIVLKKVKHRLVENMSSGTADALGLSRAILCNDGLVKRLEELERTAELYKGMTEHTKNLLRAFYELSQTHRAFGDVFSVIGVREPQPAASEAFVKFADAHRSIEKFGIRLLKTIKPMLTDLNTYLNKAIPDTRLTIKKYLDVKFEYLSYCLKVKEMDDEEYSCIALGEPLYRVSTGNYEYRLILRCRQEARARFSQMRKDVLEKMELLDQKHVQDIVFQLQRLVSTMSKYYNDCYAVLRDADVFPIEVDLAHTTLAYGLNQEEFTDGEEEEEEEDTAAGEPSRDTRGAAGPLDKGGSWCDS
Procedure, shortened: as §1

[3] = target: T3, PDZ protein (GST-PDZ fusion) (Homo sapiens, UniProt P53667); details: PDZ LIMK1, PDZ Domain 1
T3 construct: made in house; host or cells: E. coli (DH5alpha, BL21 or JM109)
T3 sequence (P53667 whole entry, the tested form may be a part): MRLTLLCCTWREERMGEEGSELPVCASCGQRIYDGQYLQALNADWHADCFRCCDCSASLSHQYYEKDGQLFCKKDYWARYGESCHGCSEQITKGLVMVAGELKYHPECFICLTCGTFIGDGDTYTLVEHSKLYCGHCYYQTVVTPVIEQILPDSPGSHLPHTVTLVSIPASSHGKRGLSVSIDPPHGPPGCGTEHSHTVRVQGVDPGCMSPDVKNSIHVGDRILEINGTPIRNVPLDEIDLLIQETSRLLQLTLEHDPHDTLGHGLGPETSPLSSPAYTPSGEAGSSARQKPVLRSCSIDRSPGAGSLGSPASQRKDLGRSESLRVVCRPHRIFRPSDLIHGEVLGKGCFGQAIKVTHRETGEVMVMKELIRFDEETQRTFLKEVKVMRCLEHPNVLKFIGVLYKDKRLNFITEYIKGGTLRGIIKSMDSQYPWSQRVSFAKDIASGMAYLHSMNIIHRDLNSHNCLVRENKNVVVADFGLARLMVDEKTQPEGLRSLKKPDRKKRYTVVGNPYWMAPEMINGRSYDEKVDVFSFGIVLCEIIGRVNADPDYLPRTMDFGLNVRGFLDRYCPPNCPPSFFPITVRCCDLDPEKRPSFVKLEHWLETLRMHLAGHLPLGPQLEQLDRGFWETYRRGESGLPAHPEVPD
Procedure, shortened: as §1

[4] = target: T4, PDZ protein (GST-PDZ fusion) (Homo sapiens, UniProt Q9ULD6); details: PDZ KIAA1284, PDZ Domain 1
T4 construct: made in house; host or cells: E. coli (DH5alpha, BL21 or JM109)
T4 sequence (Q9ULD6 1-942): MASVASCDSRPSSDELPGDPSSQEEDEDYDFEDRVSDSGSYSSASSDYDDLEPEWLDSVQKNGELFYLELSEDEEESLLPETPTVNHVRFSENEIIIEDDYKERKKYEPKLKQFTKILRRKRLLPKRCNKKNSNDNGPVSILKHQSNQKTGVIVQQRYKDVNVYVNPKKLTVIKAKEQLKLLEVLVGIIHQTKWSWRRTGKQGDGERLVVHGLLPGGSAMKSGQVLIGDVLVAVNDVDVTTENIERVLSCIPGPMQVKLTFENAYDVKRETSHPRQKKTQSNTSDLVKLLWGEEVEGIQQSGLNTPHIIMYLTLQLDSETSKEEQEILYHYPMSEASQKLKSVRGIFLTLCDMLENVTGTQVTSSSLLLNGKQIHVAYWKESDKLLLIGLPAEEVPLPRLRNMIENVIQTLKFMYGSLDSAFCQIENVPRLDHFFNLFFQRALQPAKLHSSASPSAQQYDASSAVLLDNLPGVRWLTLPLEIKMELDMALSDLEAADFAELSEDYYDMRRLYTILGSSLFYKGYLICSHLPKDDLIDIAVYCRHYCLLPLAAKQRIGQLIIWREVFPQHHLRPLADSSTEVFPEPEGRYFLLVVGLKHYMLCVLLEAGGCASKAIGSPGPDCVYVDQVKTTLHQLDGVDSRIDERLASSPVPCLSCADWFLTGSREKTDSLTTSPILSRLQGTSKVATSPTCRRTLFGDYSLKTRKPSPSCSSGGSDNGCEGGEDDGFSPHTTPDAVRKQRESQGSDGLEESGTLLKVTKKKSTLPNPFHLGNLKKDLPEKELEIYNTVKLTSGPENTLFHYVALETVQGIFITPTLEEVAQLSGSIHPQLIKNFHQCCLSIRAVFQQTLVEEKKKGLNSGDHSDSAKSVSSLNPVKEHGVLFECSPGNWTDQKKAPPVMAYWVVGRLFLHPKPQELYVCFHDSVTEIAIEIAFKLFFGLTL
Procedure, shortened: as §1

In the case of CC(C)C[C@H](NC(=O)[C@H](CC(=O)O)NC(=O)[C@H](CO)NC(=O)[C@H](CCC(=O)O)NC(=O)CNC(=O)[C@H](Cc1ccc(O)cc1)NC(=O)[C@H](CC(C)C)NC(=O)[C@H](C)NC(=O)[C@H](CO)NC(=O)[C@H](CO)NC(=O)[C@H](Cc1ccccc1)NC(=O)[C@H](C)NC(=O)[C@H](C)NC(=O)[C@H](Cc1ccc(O)cc1)NC(=O)[C@H](CC(=O)O)NC(=O)[C@H](CC(C)C)NC(=O)[C@H](C)NC(=O)CNC(=O)[C@@H]1CCCN1C(=O)[C@@H](NC(=O)CCCC[C@@H]1SC[C@@H]2NC(=O)N[C@@H]21)C(C)C)C(=O)O [a-actinin 2] (Biotin-VPGALDYAAFSSALYGESDL-OH; C-terminus assumed), the Classification [1] is reported as 1 (A450 nm 0-1).
With CC[C@H](C)[C@H](NC(=O)[C@H](C)NC(=O)[C@H](CC(C)C)NC(=O)[C@H](Cc1c[nH]c2ccccc12)NC(=O)[C@H](Cc1c[nH]cn1)NC(=O)[C@H](CCC(N)=O)NC(=O)[C@H](CC(C)C)NC(=O)[C@H](CCC(N)=O)NC(=O)[C@H](Cc1ccccc1)NC(=O)[C@H](CCC(N)=O)NC(=O)[C@H](CCCNC(=N)N)NC(=O)[C@@H](NC(=O)[C@H](CC(=O)O)NC(=O)[C@H](CCCNC(=N)N)NC(=O)[C@H](CCC(N)=O)NC(=O)[C@H](C)NC(=O)[C@@H](NC(=O)[C@H](CC(C)C)NC(=O)[C@H](Cc1c[nH]cn1)NC(=O)[C@H](Cc1c[nH]cn1)NC(=O)CCCC[C@@H]1SC[C@@H]2NC(=O)N[C@@H]21)C(C)C)[C@@H](C)CC)C(=O)O [noradrenaline transporter] (Biotin-HHLVAQRDIRQFQLQHWLAI-OH; C-terminus assumed) the Classification [2] was 1 (A450 nm 0-1).
With CC(C)C[C@H](NC(=O)[C@H](Cc1c[nH]c2ccccc12)NC(=O)[C@H](Cc1c[nH]cn1)NC(=O)[C@H](CCCNC(=N)N)NC(=O)[C@H](CC(C)C)NC(=O)[C@@H](NC(=O)[C@H](Cc1ccccc1)NC(=O)[C@H](CCC(N)=O)NC(=O)[C@H](CCCNC(=N)N)NC(=O)[C@@H](NC(=O)[C@H](CCC(=O)O)NC(=O)CNC(=O)[C@H](CCCNC(=N)N)NC(=O)[C@H](CC(=O)O)NC(=O)[C@@H](NC(=O)[C@H](CC(C)C)NC(=O)[C@H](CCC(=O)O)NC(=O)[C@H](CCCNC(=N)N)NC(=O)CCCC[C@@H]1SC[C@@H]2NC(=O)N[C@@H]21)C(C)C)C(C)C)[C@@H](C)O)C(=O)N[C@@H](CCCCN)C(=O)N[C@H](C(=O)O)C(C)C [Dopamine transporter (Na+-dependent)] (Biotin-RELVDRGEVRQFTLRHWLKV-OH; C-terminus assumed) the Classification [2] was 2 (A450 nm 1-2).
In the case of CC[C@H](C)[C@H](NC(=O)[C@H](CCC(N)=O)NC(=O)CCCC[C@@H]1SC[C@@H]2NC(=O)N[C@@H]21)C(=O)N[C@@H](CO)C(=O)N1CCC[C@H]1C(=O)NCC(=O)NCC(=O)N[C@@H](CC(C)C)C(=O)N[C@@H](CCC(=O)O)C(=O)N1CCC[C@H]1C(=O)N1CCC[C@H]1C(=O)N[C@@H](CO)C(=O)N[C@@H](CCC(=O)O)C(=O)N[C@@H](CCCCN)C(=O)N[C@@H](Cc1c[nH]cn1)C(=O)N[C@@H](Cc1ccccc1)C(=O)N[C@@H](CCCNC(=N)N)C(=O)N[C@@H](CCC(=O)O)C(=O)N[C@H](C(=O)N[C@@H](CCC(=O)O)C(=O)N[C@H](C(=O)O)C(C)C)[C@@H](C)O [Tax], the Classification [3] is reported as 1 (A450 nm 0-1).
In the case of CSCC[C@H](NC(=O)[C@H](C)NC(=O)[C@H](CCCNC(=N)N)NC(=O)CNC(=O)[C@@H](NC(=O)[C@H](Cc1c[nH]c2ccccc12)NC(=O)[C@H](CCCNC(=N)N)NC(=O)CNC(=O)CCCC[C@@H]1SC[C@@H]2NC(=O)N[C@@H]21)[C@@H](C)O)C(=O)N[C@@H](CO)C(=O)N[C@@H](C)C(=O)N[C@@H](Cc1c[nH]c2ccccc12)C(=O)N[C@@H](CCCCN)C(=O)N1CCC[C@H]1C(=O)N[C@H](C(=O)N[C@@H](CCCNC(=N)N)C(=O)N[C@@H](CCCNC(=N)N)C(=O)N[C@@H](CCC(=O)O)C(=O)N[C@H](C(=O)N[C@@H](CCC(=O)O)C(=O)N[C@H](C(=O)O)C(C)C)[C@@H](C)O)[C@@H](C)O [HPV E6 #35 (modified)] (Biotin-GRWTGRAMSAWKPTRRETEV-OH; C-terminus assumed), the Classification [3] is reported as 1 (A450 nm 0-1) and the Classification [4] is reported as 1 (A450 nm 0-1).
In the case of “PPATPSPRLALPAHHNATRL (Biotin-PPATPSPRLALPAHHNATRL) [Na+/Pi cotransporter 2]”, the Classification [1] is reported as 4 (A450 nm 3-4).
In the case of “A2AA_HUMAN (modified) (Biotin-HDFRRAFKKILARGDRKRIV; not fully specified)”, the Classification [4] is reported as 1 (A450 nm 0-1).
